Test results as given in patent US20200069664A1, “METHODS FOR TREATING INFECTION” (Salix Pharmaceuticals, Ltd, priority 2010, published 2020).
“Also recorded” adds a separate entry of the source. Like-named read-outs stand apart in the source and are kept apart here.

What was measured:
[1] = test system: EAEC strain O42; type: cell-based, E. coli
[2] = test system: ETEC isolates; type: cell-based, E coli
[3] = test system: C difficile isolates; conditions: 201 C difficile isolates, Canada, cited from earlier work
[4] = 24 h pretreatment with 64 mg (sic; FIG. 2: 64 μg/ml)
[5] = rifaximin 8 mg/L, exposure 4 hrs
[6] = rifaximin 8 mg/L, exposure 8 hrs
[7] = rifaximin 8 mg/L, exposure 18 hrs
[8] = rifaximin 8 mg/L, exposure 24 hrs
[9] = rifaximin 32 mg/L, exposure 4 hrs
[10] = rifaximin 32 mg/L, exposure 8 hrs
[11] = rifaximin 32 mg/L, exposure 18 hrs
[12] = rifaximin 64 mg/L, exposure 4 hrs
[13] = rifaximin 64 mg/L, exposure 8 hrs

(2S,16Z,18E,20S,21S ,22R, 23R,24R,255,265,275,28E)-5,6,21,23,25 Pentahydroxy-27-methoxy-2,4,11,16,20,22,24,26-octamethyl-2,7-(epoxypentadeca-(1,11,13) trienimino) benzofuro (4,5-e) pyrido(1,2,-a) benzimidazole-1,15(2H)-dione,25-acetate [Rifaximin]
EAEC adherence to pretreated HEp-2 cells, quantified by CFU [1]: significantly lower; also recorded: reduced EAEC adherence | EAEC adherence to A549 cells [1, 4]: significantly reduced | EAEC adherence to HCT-8 cells [1, 4]: not significant | EAEC adherence to HEp-2 cells [1, 4]: significantly reduced | EAEC adherence to HeLa cells [1, 4]: significantly reduced | EAEC O42 adherence to pretreated HEp-2 cells (microscopy, stacked-brick pattern) ([1]; HEp-2 cells pretreated 24 h, washed, EAEC 3 h, Wright-Giemsa staining): greatly reduced | EAEC bacterial counts in the supernatants (viability) ([1]; after 3 h incubation with pretreated HEp-2 cells): No differences; also recorded: without affecting EAEC viability | Expression of virulence factors (ST, LT, CS2/CS3, CS6) by ETEC isolates ([2]; 4- and 8-hour exposure to rifaximin 8, 32, and 64 mg/L): expressed all examined virulence factors | Expression of virulence factors (ST, LT, CS2/CS3, CS6) by ETEC isolates ([2]; 18 hours, rifaximin 8 mg/L): all virulence factors were expressed | Expression of virulence factors (ST, LT, CS2/CS3, CS6) by ETEC isolates ([2]; 18 hours, rifaximin 32 mg/L): no factors were seen | Expression of virulence factors (ST, LT, CS2/CS3, CS6) by ETEC isolates ([2]; 24 hours, rifaximin 8 mg/L): did not express any virulence factors | Expression of CS2/CS3 in ETEC isolates [2, 5]: + | Expression of CS6 in ETEC isolates [2, 5]: + | Expression of LT in ETEC isolates [2, 5]: + | Expression of ST in ETEC isolates [2, 5]: + | Expression of ST/LT in ETEC isolates [2, 5]: + | Expression of CS2/CS3 in ETEC isolates [2, 6]: + | Expression of CS6 in ETEC isolates [2, 6]: + | Expression of LT in ETEC isolates [2, 6]: + | Expression of ST in ETEC isolates [2, 6]: + | Expression of ST/LT in ETEC isolates [2, 6]: + | Expression of CS2/CS3 in ETEC isolates [2, 7]: + | Expression of CS6 in ETEC isolates [2, 7]: + | Expression of LT in ETEC isolates [2, 7]: + | Expression of ST in ETEC isolates [2, 7]: + | Expression of ST/LT in ETEC isolates [2, 7]: + | Expression of CS2/CS3 in ETEC isolates [2, 8]: − | Expression of CS6 in ETEC isolates [2, 8]: − | Expression of LT in ETEC isolates [2, 8]: − | Expression of ST in ETEC isolates [2, 8]: − | Expression of ST/LT in ETEC isolates [2, 8]: − | Expression of CS2/CS3 in ETEC isolates [2, 9]: + | Expression of CS6 in ETEC isolates [2, 9]: + | Expression of LT in ETEC isolates [2, 9]: + | Expression of ST in ETEC isolates [2, 9]: + | Expression of ST/LT in ETEC isolates [2, 9]: + | Expression of CS2/CS3 in ETEC isolates [2, 10]: + | Expression of CS6 in ETEC isolates [2, 10]: + | Expression of LT in ETEC isolates [2, 10]: + | Expression of ST in ETEC isolates [2, 10]: + | Expression of ST/LT in ETEC isolates [2, 10]: + | Expression of CS2/CS3 in ETEC isolates [2, 11]: − | Expression of CS6 in ETEC isolates [2, 11]: − | Expression of LT in ETEC isolates [2, 11]: − | Expression of ST in ETEC isolates [2, 11]: − | Expression of ST/LT in ETEC isolates [2, 11]: − | Expression of CS2/CS3 in ETEC isolates [2, 12]: + | Expression of CS6 in ETEC isolates [2, 12]: + | Expression of LT in ETEC isolates [2, 12]: + | Expression of ST in ETEC isolates [2, 12]: + | Expression of ST/LT in ETEC isolates [2, 12]: + | Expression of CS2/CS3 in ETEC isolates [2, 13]: + | Expression of CS6 in ETEC isolates [2, 13]: + | Expression of LT in ETEC isolates [2, 13]: + | Expression of ST in ETEC isolates [2, 13]: + | Expression of ST/LT in ETEC isolates [2, 13]: + | MIC50 ([3]; 1992 to 2007): 0.008 µg/mL | MIC90 ([3]; 1992 to 2007): 0.015 µg/mL | Isolates with MIC values >2 μg/mL [3]: 4%
